According to patent US9751865B2, “Dihydro-hydantoin derivatives with herbicidal activity” (SYNGENTA PARTICIPATIONS AG, priority 2013, dated 2017):

Assays:
Format in all cases: in vivo
Echinochloa crus-galli [1] = test: Post-emergence herbicidal activity, ECHCG; set-up: key: 5=total damage to plant; 0=no damage to plant; conditions: application post-emergence, 1000 g/Ha, evaluated after 13 days, scale 0-5
Method: (§1) Seeds of a variety of test species were sown in standard soil in pots. After 8 days cultivation (post-emergence) under controlled conditions in a glasshouse (at 24/16° C., day/night; 14 hours light; 65% humidity), the plants were sprayed with an aqueous spray solution derived from the formulation of the technical active ingredient in acetone/water (50:50) solution containing 0.5% Tween 20 (polyoxyethelyene sorbitan monolaurate, CAS RN 9005-64-5). The test plants were then grown in a glasshouse under controlled conditions (at 24/16° C., day/night; 14 hours light; 65% humidity) and watered twice daily. After 13 days, the test was evaluated (5=total damage to plant; 0=no damage to plant).

Amaranthus retroflexus [2] = test: Pre-emergence herbicidal activity, AMARE; set-up: key: 5=total damage to plant; 0=no damage to plant; conditions: application pre-emergence, 1000 g/Ha, evaluated after 13 days, scale 0-5
Method: as §1, with “After” for “After 8 days”, “for one day (pre-emergence)” for “(post-emergence)”

Alopecurus myosuroides [3] = test: Pre-emergence herbicidal activity, ALOMY; conditions: application pre-emergence, 1000 g/Ha, evaluated after 13 days, scale 0-5
Method: as §1, with “After” for “After 8 days”, “for one day (pre-emergence)” for “(post-emergence)”

Abutilon theophrasti [4] = test: Post-emergence herbicidal activity, ABUTH; set-up: key: 5=total damage to plant; 0=no damage to plant; conditions: application post-emergence, 1000 g/Ha, evaluated after 13 days, scale 0-5
Method: as §1

Zea mays [5] = test: Post-emergence herbicidal activity, ZEAMX; set-up: key: 5=total damage to plant; 0=no damage to plant; conditions: application post-emergence, 1000 g/Ha, evaluated after 13 days, scale 0-5
Method: as §1

Alopecurus myosuroides [6] = test: Post-emergence herbicidal activity, ALOMY; set-up: key: 5=total damage to plant; 0=no damage to plant; conditions: application post-emergence, 1000 g/Ha, evaluated after 13 days, scale 0-5
Method: as §1

Setaria faberi [7] = test: Post-emergence herbicidal activity, SETFA; set-up: key: 5=total damage to plant; 0=no damage to plant; conditions: application post-emergence, 1000 g/Ha, evaluated after 13 days, scale 0-5
Method: as §1

Setaria faberi [8] = test: Pre-emergence herbicidal activity, SETFA; conditions: application pre-emergence, 1000 g/Ha, evaluated after 13 days, scale 0-5
Method: as §1, with “After” for “After 8 days”, “for one day (pre-emergence)” for “(post-emergence)”

Amaranthus retroflexus [9] = test: Post-emergence herbicidal activity, AMARE; set-up: key: 5=total damage to plant; 0=no damage to plant; conditions: application post-emergence, 1000 g/Ha, evaluated after 13 days, scale 0-5
Method: as §1

Echinochloa crus-galli [10] = test: Pre-emergence herbicidal activity, ECHCG; conditions: application pre-emergence, 1000 g/Ha, evaluated after 13 days, scale 0-5
Method: as §1, with “After” for “After 8 days”, “for one day (pre-emergence)” for “(post-emergence)”

Zea mays [11] = test: Pre-emergence herbicidal activity, ZEAMX; conditions: application pre-emergence, 1000 g/Ha, evaluated after 13 days, scale 0-5
Method: as §1, with “After” for “After 8 days”, “for one day (pre-emergence)” for “(post-emergence)”

Abutilon theophrasti [12] = test: Pre-emergence herbicidal activity, ABUTH; set-up: key: 5=total damage to plant; 0=no damage to plant; conditions: application pre-emergence, 1000 g/Ha, evaluated after 13 days, scale 0-5
Method: as §1, with “After” for “After 8 days”, “for one day (pre-emergence)” for “(post-emergence)”

Structure (SMILES) | ECHCG damage score (Echinochloa crus-galli [1]) | AMARE damage score (Amaranthus retroflexus [2]) | ALOMY damage score (Alopecurus myosuroides [3]) | ABUTH damage score (Abutilon theophrasti [4]) | ZEAMX damage score (Zea mays [5]) | ALOMY damage score (Alopecurus myosuroides [6]) | SETFA damage score (Setaria faberi [7]) | SETFA damage score (Setaria faberi [8]) | AMARE damage score (Amaranthus retroflexus [9]) | ECHCG damage score (Echinochloa crus-galli [10]) | ZEAMX damage score (Zea mays [11]) | ABUTH damage score (Abutilon theophrasti [12])
C[C@@H]1C(O)N(c2cc(C(F)(F)F)n(C)n2)C(=O)N1C (stereo partly drawn) [Compound A15, (5R)-4-hydroxy-1,5-dimethyl-3-[1-methyl-5-(trifluoromethyl)pyrazol-3-yl]imidazolidin-2-one] | 5 | 5 | 2 | 5 | 5 | 5 | 5 | 3 | 5 | 2 | 1 | 5
CC1NC(=O)N(c2cc(C(C)(C)C)n(C)n2)C1O (stereo not drawn) [Compound A17] | 3 | 5 | 3 | 4 | 0 | 3 | 2 | 3 | 4 | 4 | 1 | 4
